The record followed here is patent US5539119A, “Indole derivatives” (priority 1990, dated 1996).

For one experiment, the target named is T1, δ opioid receptor (Cavia porcellus, UniProt A0A286XTF2).
T1 construct: the homogenate of the brain of a guinea pig; from tissue; host or cells: guinea pig brain homogenate
The experiment is described as follows: Bonding (binding) assay, guinea pig brain homogenate, DPDPE (hot) / DADLE (cold). As for the experimental part:
(§1) In the test for bonding, the homogenate of the brain of a guinea pig was diluted with Tris buffer in a ratio calculated to give to the produced solution a protein content of 0.7 mg per prot/tube was used as incorporated in the reaction solution. With regard to ligands for binding assay, 3H-DAGO (μ), DPDPE (δ), and EKC (κ) were used for hot samples and naloxone (μ), DADLE (δ), and naloxone (κ) for cold samples.

A further experiment relates to Mouse Vas Deferens (MVD). Nature of the experiment: Agonist activity in Mouse Vas Deferens (MVD). Conditions: read-out: MVD IC50. As for the experimental part:
(§2) The test of the compounds of this invention for agonist and antagonist activities was carried out in according to the method proposed by Takemori et al. (Takemori, A, E. et al.: Eur. J. Pharmacal., 1982, 85, 163) using Guinea Pig Ileal Longitudinal Muscle Mouse Vas Deferens (MVD).

Experiment [1] relates to Guinea Pig Ileal Longitudinal Muscle. The experiment is described as follows: Agonist activity in Guinea Pig Ileal Longitudinal Muscle (GPI). Conditions: guinea pig ileum. As for the experimental part: as §2
The test system is the same in experiment [2]. Nature of the experiment: GPI, shift of the compound's effect by naloxone or nor-BNI. On the set-up: GPI nor-BN1 Ke: unit not given here. As for the experimental part: as §2
Another experiment concerns the target T2, κ opioid receptor (Cavia porcellus, UniProt P41144).
T2 construct: the homogenate of the brain of a guinea pig; from tissue; host or cells: guinea pig brain homogenate
The experiment is described as follows: Bonding (binding) assay, guinea pig brain homogenate, EKC (hot) / naloxone (cold). As for the experimental part:
as §1

The next experiment has as its target T3, δ-receptor (Mus musculus, UniProt P32300).
T3 construct: from tissue; host or cells: mouse vas deferens
The experiment is described as follows: Antagonism to DPDPE in Mouse Vas Deferens (MVD). Conditions: for Kb: MVD Antagonism to DPDPE.

Like-named read-outs stand apart in the source and are kept apart here.

T3 sequence (P32300 whole entry): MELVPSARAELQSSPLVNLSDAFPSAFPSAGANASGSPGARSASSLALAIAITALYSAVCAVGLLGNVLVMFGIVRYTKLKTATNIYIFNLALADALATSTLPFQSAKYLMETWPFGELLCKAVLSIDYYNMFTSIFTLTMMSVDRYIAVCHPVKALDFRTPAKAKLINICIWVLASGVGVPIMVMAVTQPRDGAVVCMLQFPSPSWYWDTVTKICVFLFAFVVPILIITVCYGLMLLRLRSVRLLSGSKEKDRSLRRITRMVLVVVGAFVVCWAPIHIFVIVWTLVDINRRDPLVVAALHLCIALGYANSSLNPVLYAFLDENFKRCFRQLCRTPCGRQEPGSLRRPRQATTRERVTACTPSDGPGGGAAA
T1 sequence (A0A286XTF2 1-366): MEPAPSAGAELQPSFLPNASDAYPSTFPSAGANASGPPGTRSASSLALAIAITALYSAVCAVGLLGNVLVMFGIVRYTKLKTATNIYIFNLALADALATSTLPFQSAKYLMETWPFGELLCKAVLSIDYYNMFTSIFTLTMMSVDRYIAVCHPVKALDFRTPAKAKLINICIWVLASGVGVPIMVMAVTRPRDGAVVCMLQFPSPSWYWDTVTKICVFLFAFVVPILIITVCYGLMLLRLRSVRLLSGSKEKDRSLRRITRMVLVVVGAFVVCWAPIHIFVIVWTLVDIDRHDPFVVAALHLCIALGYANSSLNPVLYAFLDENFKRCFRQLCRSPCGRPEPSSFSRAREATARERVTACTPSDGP
T2 sequence (P41144 whole entry): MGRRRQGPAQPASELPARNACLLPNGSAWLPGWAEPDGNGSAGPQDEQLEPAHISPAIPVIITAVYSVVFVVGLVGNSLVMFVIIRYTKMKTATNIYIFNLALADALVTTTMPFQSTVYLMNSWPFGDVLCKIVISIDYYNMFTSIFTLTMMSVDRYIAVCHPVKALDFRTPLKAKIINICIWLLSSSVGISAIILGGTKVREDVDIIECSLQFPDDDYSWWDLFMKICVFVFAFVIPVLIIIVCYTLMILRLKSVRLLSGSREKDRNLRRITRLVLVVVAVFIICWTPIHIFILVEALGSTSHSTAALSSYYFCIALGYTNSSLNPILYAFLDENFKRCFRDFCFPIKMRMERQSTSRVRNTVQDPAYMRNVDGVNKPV

In the case of `CN1CC[C@]2(c3cccc(O)c3)Cc3[nH]c4ccc(Br)cc4c3C[C@H]2C1` (relative stereo) [Compound 10, 2-Methyl-4aα-(3-hydroxyphenyl)-9-bromo-1,2,3,4,4a,5,11,11aβ-octahydro-6H-indolo[2,3-g]isoquinoline], the Ki on δ opioid receptor (guinea pig brain homogenate, read-out: Bonding assay Ki value δ) stood at 1390 nM. Also, the half-maximal inhibitory concentration (IC50) in the experiment with Mouse Vas Deferens (MVD) is 21900 nM. Besides, the half-inhibitory concentration (IC50) in experiment [1] was 14300 nM. In experiment [2], the “GPI naloxone DR” value stood at 0.92, the “GPI nor-BN1 DR” value is reported as 1.31, the “GPI nor-BN1 Ke” value was determined as 64.5 and the “GPI nor-BN1 pA2” value was 7.19.
For the compound `CN1CC[C@]2(c3cccc(O)c3)Cc3[nH]c4ccccc4c3C[C@@]2(O)C1` (relative stereo) [Compound 54, 2-Methyl-4aα-(3-hydroxyphenyl)-11aβ-hydroxy-1,2,3,4,4a,5,11,11a-octahydro-6H-indolo[2,3-q]isoquinoline], affinity at δ opioid receptor was put at a Ki of 2.75 nM. The compound further had a Ki at κ opioid receptor of 662 nM. The concentration for half-maximal inhibition (IC50) in the experiment with Mouse Vas Deferens (MVD) was found to be 10200 nM. In addition, the “MVD Antagonism to DPDPE, DR” value on δ-receptor ((50 nM)) was found to be 22.4. On δ-receptor (pA2, (20 nM)), the antagonist equilibrium constant (Kb) is 5.75 nM. This compound showed an antagonist dissociation constant (Kb) on δ-receptor (pA2, (50 nM)) of 1.7 nM. This compound had a half-inhibitory concentration (IC50) in experiment [1] of 5960 nM. Also, in experiment [2], the “GPI naloxone DR” value is recorded as 1.30, the “GPI nor-BN1 DR” value amounted to 3.30, the “GPI nor-BN1 Ke” value is recorded as 8.70 and the “GPI nor-BN1 pA2” value was found to be 8.06.

The term Ki denotes a measure of affinity in units of concentration, obtained from inhibition or displacement. A word on the IC50: it is the concentration that gives 50% inhibition. The term Kb denotes the affinity of an antagonist, worked out from how it opposes an agonist.
